Literature values as cited in PMC3298469, “A selective and potent CXCR3 antagonist SCH 546738 attenuates the development of autoimmune diseases and delays graft rejection” (BMC Immunology, 2012).
Where two headings read alike, the source gives them in different places.

Assays:
[1] = Phase II clinical trials, halted; cited from earlier work
mouse = test system: mouse; set-up: method as in ref 21 = [21]; Medina J Presented at the 29th National Medicinal Chemistry Symposium (Madison, Wisconsin), June 27-July 1 2004; conditions: mouse model of CIA; cited from earlier work
rat = test system: rat; set-up: method as in ref 21 = [21]; Medina J Presented at the 29th National Medicinal Chemistry Symposium (Madison, Wisconsin), June 27-July 1 2004; conditions: rat model of CIA; cited from earlier work
cardiac allograft = conditions: cited from earlier work
EAE = test system: EAE; set-up: method as in PMID 20050195; conditions: by decreasing migration of inflammatory cells into the CNS; cited from earlier work
[2] = set-up: method as in ref 44 = [44]; Medarex Announces Primary Endpoint Achieved in MDX-1100 Anti-IP-10 Antibody Phase 2 Trial for Rheumatoid Arthritis http://www.fiercebiotech.com/press-releases/medarex-announces-primary-endpoint-achiev; conditions: phase 2 clinical trial for RA; cited from earlier work

Molecule: CCOc1ccc(-n2c([C@@H](C)N(Cc3cccnc3)C(=O)Cc3ccc(OC(F)(F)F)cc3)nc3ncccc3c2=O)cc1 [AMG487]
- clinical outcome [1]: lack of efficacy
- effect in CIA (mouse): reduced inflammation and cartilage damage
- effect in CIA (rat): reduced inflammation and cartilage damage

Molecule: Cc1ccc(-c2ccc3c(c2)C=C(C(=O)Nc2ccc(C[N+](C)(C)C4CCOCC4)cc2)CCC3)cc1.[Cl-] [TAK-779]
- effect on cardiac allograft vasculopathy (cardiac allograft): attenuates cardiac allograft vasculopathy
- effect on EAE (EAE): reduce incidence and severity of EAE

Molecule: MDX-1100: anti-IP-10 antibody
- clinical outcome [2]: efficacy
